# From patent publication US20090047742A1 (priority 2005, published 2009)
# Experiments:
# caspase-3, PARP = assay: Western blot of active caspase-3 and PARP in T-Rex-293 lysates; type: cell-based, human
# Procedure: Western blot analysis and immunofluorescence were performed as previously described (Perez, D., and White, E. J. Cell Biol. 141: 1255-1266 (1998); Perez, D., and White, E. Mol. Cell 6: 53-63 (2000)). The term “Western blot” refers to a method for identifying proteins in a complex mixture; proteins are separated electrophoretically in a gel medium; transferred from the gel to a protein binding sheet or membrane; and the sheet or membrane containing the separated proteins exposed to specific antibodies which bind to, locate, and enable visualization of protein(s) of interest. T-Rex-293 (mazF/pcDNA3) and T-Rex-293 (mazF/mazE) cells were harvested at 0, 24, 48 and 72 hr post-treatment with tetracycline or staurosporine by scraping and centrifugation. All cell pellets were lysed in 2× Laemmli buffer. Cell lysates were subjected to electrophoresis on a 15% SDS-PAGE gel and then transferred onto an Immobilon-P membrane (Millipore, Bedford, Mass.). The blot was incubated with following antibody: anti-active caspase-3 rabbit polyclonal antibody (Cell Signaling Technology, Beverly, Mass.), anti-BAX, anti-BAK rabbit polyclonal antibody (NT) (Upstate Biotechnology Inc., Lake Placid, N.Y.), anti-BID goat polyclonal antibody (R&D Systems, Inc, Minneapolis, Minn.), anti-Bim rabbit polyclonal antibody (Alexis Biochemical, San Diego, Calif.), anti-BCL-2 hamster monoclonal antibody (PharMingen, San Diego, Calif.), anti-BCL-XL mouse monoclonal antibody (Trevigen, Gaithersburg, Md.), anti-MCL-1 rabbit polyclonal antibody (Stressgen Biotechnologies, Victoria, British Columbia, Canada), anti-PARP mouse monoclonal antibody (PharMingen, San Diego, Calif.), anti-PUMA rabbit polyclonal antibody (Nelson, D. A., et al., Genes Dev. 18: 2095-2107 (2004)), anti-E1A monoclonal antibody; anti-actin monoclonal antibody (Oncogene Research Products); and anti-Xpress monoclonal antibody (Invitrogen). An antibody directed to human NBK/BIK was generated by expression of a GST-tagged human NBK/BIK fusion protein encoding an N-terminal 78-amino acid region in bacteria and immunization of rabbits (Cocalico). Western Blots were developed with horseradish peroxidase-conjugated secondary antibodies using the ECL system (Amersham-Pharmacia Biotech, Piscataway, N.J.).
# T-Rex-293 cells [1] = assay: phase contrast morphology / cytopathic effect; type: cell-based, human; details: T-Rex-293, 72 hours post-induction of MazF
# T-Rex-293 cells [2] = assay: 35S-methionine metabolic labeling (protein synthesis); type: cell-based, human
# Procedure: T-Rex-293 (mazF/pcDNA3) and T-Rex-293 (mazF/mazE) cells were incubated for 0, 24 and 48 hr in tetracycline-containing complete DMEM followed by incubation for 1 hr in fresh methionine-free DMEM containing 10 μCi/ml ^35S-methionine. The cells then were washed with PBS twice and lysed in 2× Laemmli buffer. The cell lysate was subjected to SDS-PAGE followed by autoradiography and coomassie blue stain. Signal intensity was measured by Phosphoimager STORM 860 (Molecular Dynamics, Sunnyvale, Calif.).
# iBMK cells = assay: β-galactosidase assay, viability of iBMK cells co-expressing LacZ; type: cell-based, mouse
# Procedure: β-galactosidase assays to determine the viability of iBMK cells co-expressing LacZ and MazF were performed as previously described (Han, J., Sabbatini, P., and White, E. Mol. Cell. Biol. 16: 5857-5864 (1996)). W2, D3, X2 and K1 co-transfected with pcDNA6/His/LacZ and pcDNA4/TO/mazF or pcDNA3 for 48 hr were fixed in 1% glutaraldehyde and then stained with 0.2% X-gal solution at 37° C. for 24 hr. β-Galactosidase positive blue cells and the total number of cells (approximately 200 cells) were independently counted on a 6-cm diameter dish.
# T-Rex-293 cells [3] = assay: trypan blue exclusion viability; type: cell-based, human; details: T-Rex-293 (mazF/pcDNA3), MazF expression induced
# Procedure: The viability of T-Rex-293 cells was determined by trypan blue exclusion as previously described (Degenhardt, K., et al., J. Biol. Chem. 277: 14127-14134 (2002)). T-Rex-293 (mazF/pcDNA3) and T-Rex-293 (mazF/mazE) cells were cultured for 24 hr before tetracycline treatment and then incubated for 0, 24, 48 and 72 hr at 37° C. in the presence or absence of 10 μg/ml tetracycline. After treatment, cells were collected by centrifugation of the supernatant plus adherent cells, which were harvested by trypsinization. Cells were resuspended in 500 μl of fresh medium containing 0.1% trypan blue solution (Sigma, St. Louis, Mo.) and then counted on a hemocytometer to assess the number of dead blue cells and the total number of cells counted. As a control for apoptotic cell death, T-Rex-293 (mazF/mazE) cells were treated with 1 μM staurosporine (Sigma, St. Louis, Mo.) for same time periods concurrently with tetracycline treatment.
substance,measurement,setting,value
MazF: E. coli toxin; sequence specific endoribonuclease (mRNA interferase) cleaving single-stranded RNAs at ACA sequences; expressed from plasmid pcDNA4/TO/mazF,cleaved PARP (Western blot),"caspase-3, PARP; T-Rex-293 (mazF/pcDNA3) treated with Tet for 48 hours",detected
same,cleaved PARP levels (Western blot),"caspase-3, PARP; T-Rex-293 (mazF/pcDNA3), 72 hours post-induction of MazF",further increased
same,processed active caspase-3 (Western blot),"caspase-3, PARP; extracts from T-Rex-293 (mazF/pcDNA3) cells treated with Tet",presence of the processed active form of caspase-3
same,number of attached cells,T-Rex-293 cells [1],dramatically decreased
same,total protein levels (Coomassie blue),"T-Rex-293 cells [2]; MazF expressing T-Rex-293 cells, over the 48 hour induction period",remain constant
same,protein synthesis (35S-methionine incorporation),"T-Rex-293 cells [2]; T-Rex-293 (mazF/pcDNA3), 24 hours post induction of MazF",strikingly inhibited
same,β-galactosidase expression,iBMK cells; D3 (bax−/− bak−/−) iBMK cells expressing MazF,little effect
same,response to MazF (β-galactosidase assay),iBMK cells; K1 (bak−/−) iBMK cells,preferentially resistant
same,β-galactosidase positive cells,"iBMK cells; W2 iBMK cells transiently co-expressing LacZ and MazF, 48 hours post-transfection",significant decrease
same,number of β-galactosidase positive cells,iBMK cells; X2 (bax−/−) iBMK cells expressing MazF,significantly decreased
same,response to MazF-induced cell death (β-galactosidase assay),iBMK cells; nbk/bik−/− iBMK cells,preferentially resistant
same,number of β-galactosidase positive cells,"iBMK cells; puma−/−, bim−/−, noxa−/− iBMK cells transiently expressing MazF",significantly decreased
same,cell viability (trypan blue exclusion),T-Rex-293 cells [3],dropped strikingly
